Earlier results in patent US11957727B2, “Prevention of neuroinflammation associated memory loss using nutraceutical compositions” (priority 2020, dated 2024).
Read-outs that look alike come from different tables or passages of the source.

How the values were obtained:
[1] = tested on: LPS-induced ARDS
[2] = tested on: Nrf2 (+/+) primary peritoneal macrophages
[3] = tested on: nitric oxide; conditions: lipopolysaccharide-induced
[4] = tested on: sepsis induction with live Escherichia coli / endotoxin (LPS 0111:B4); conditions: for concentration of IL-la: controls 1187.0±278.64 pg/ml
[5] = tested on: ulcerative colitis (UC); conditions: 50 and 100 mg/kg/day
[6] = tested on: myocardial ischemia and reperfusion; conditions: 10 mg/kg intravenously then 10 mg/kg/h infusion, rats
[7] = animal studies
[8] = tested on: human umbilical vein VECs (HUVECs)
[9] = tested on: endothelium of atherosclerotic plaque; conditions: PT injection, apoE(−/−) mice
[10] = 50 mg/kg, LPS 5 mg/kg 3 days later

## C[S+]([O-])CCCCN=C=S (stereo not shown) [sulforaphane, 1-isothiocyanato-4-(methylsulfinyl)-butane]
[1]; [10]
  lactate dehydrogenase (LDH) activity: significantly decreased
  wet-to-dry ratio of the lungs: significantly decreased
[1]; 50 mg/kg, LPS 5 mg/kg 3 days later, ELISA
  serum levels of interleukin-6 (IL-6) and tumor necrosis factor-α (TNF-α): significantly decreased
[1]; mice with LPS-induced ALI
  prostaglandin E2 (PGE2) production: significantly inhibited
[2]; LPS-stimulated Nrf2 (+/+) macrophages
  HO-1 expression: significantly augmented
[2]; pretreatment, Nrf2 (+/+) macrophages
  LPS-stimulated mRNA expression, protein expression and production of TNF-alpha, IL-1beta, COX-2 and iNOS: potently inhibited

## CC1=CC(=O)C(C(C)C)=CC1=O [thymoquinone]
[3]
  concentration of nitric oxide: reduced significantly
[4]; 0.75 mg/kg thymoquinone dose
  concentration of IL-la: 310.8 ± 70.93 pg/mL
[4]; 0.75 mg/kg thymoquinone, controls 5505.2±333.96 pg/ml
  IL-10 levels: 2885.0 ± 553.98 pg/mL
[4]; 1 mg/kg group
  concentration of IL-la: 428.3 ± 71.32 pg/mL
[4]; P values=0.1817 and 0.0851
  levels of TNF-α and IL-2: relatively lower levels
[4]; mice, thymoquinone before LPS or live E. coli challenge
  reduction of mortality: 80-90%

## Epigallocatechin-3-gallate [EGCG]
[5]
  release of IL-6 and IL-17: reduce
[6]
  myocardial damage and myeloperoxidase activity: reduced
  plasma IL-6 and creatine phosphokinase levels: decreased

## trans-3,5-dimethoxy-4-hydroxystilbene [pterostilbene]
[7]
  bioavailability: 80%
[8]; HUVECs, oxLDL 200 μg/ml
  protection against oxLDL-induced cell shrinkage, chromatin condensation, nuclear fragmentation and apoptosis: protected against such injuries
[8]; in vitro and in vivo
  expression of lectin-like oxLDL receptor-1 (LOX-1): inhibited
[9]
  number of TUNEL-positive cells: strongly decreased
